From patent US9657013B2, “Inhibitors of hepatitis B virus covalently closed circular DNA formation and their method of use” (priority 2012, dated 2017)

What was measured:
[1] = test system: HepDE19 cells; assay: cytotoxicity assay (MTT, CC50); type: cell-based
Experimental: (§1) Cell plates were then incubated with compound dilutions and controls as described above, and addition of 3-[4,5-dimethylthiazol-2-yl]-2,5-diphenyltetrazolium bromide (MTT, Sigma-Aldrich) was added to a final concentration of 0.5 mg/ml (Mosmann, T. 1983). Plates were again incubated at 37° C. for 4 hrs, after which 10% SDS/0.01N HCl was added to each well in a volume equal to the medium (100 μl), followed by overnight incubation. Absorbance was read in the Rainbow spectrophotometer (Tecan US Inc., Durham, N.C.) at 570 nm (reference wavelength of 630 nm), and analyzed with XLfit 4.0 as described above.

[2] = test system: HBV RNA and core DNA; assay: viral RNA and core DNA in HepDES19 cells (Northern/Southern blot); type: cell-based, hepatitis B virus; details: for reduction of viral RNA and DNA replicative intermediates: day 12, high concentrations; for steady state levels of HBV RNA and core DNA: early time point (day 4) of treatment
Text: Viral nucleic acid analysis: Total cellular RNA was extracted with TRIzol reagent (Invitrogen, Grand Island, N.Y.) by following manufacturer's directions. Ten microgram of total cellular RNA was resolved in 1.5% agarose gel containing 2.2 M formaldehyde and transferred onto Hybond-XL membrane (GE Healthcare, Piscataway, N.J.) in 20×SSC buffer. Intracellular hepadnaviral core DNA and cccDNA (Hirt DNA) were extracted as described previously (Guo, H., D. Jiang, T. Zhou, A. Cuconati, T. M. Block, and J. T. Guo. 2007. Guo, H., D. Jiang, T. Zhou, A. Cuconati, T. M. Block, and J. T. Guo. 2007. Guo, H., R. Mao, T. M. Block, and J. T. Guo. 2010. Guo, H., W. S. Mason, C. E. Aldrich, J. R. Saputelli, D. S. Miller, A. R. Jilbert, and J. E. Newbold. 2005). Half of the DNA samples recovered from one well of a 6-well-plate were resolved by electrophoresis into a 1.2% agarose gel and blotted onto Hybond-XL membrane. Membranes were probed with either an α-^32P-UTP (800 Ci/mmol, Perkin Elmer) labeled hepadnaviral minus (detecting DNA) or plus strand (detecting RNA) specific full-length riboprobe and exposed to a phosphorimager screen (Fuji Film, Tokyo, Japan). Hybridization signals were visualized by Typhoon FLA-7000 (GE Healthcare) and quantified with ImageQuantTL software (GE Healthcare).
Identification of compounds that inhibits cccDNA accumulation in HepDES19 cells: Compounds were tested on HepDES19 cells, which have a higher level of cccDNA production than HepDE19 cells (Guo, H., D. Jiang, T. Zhou, A. Cuconati, T. M. Block, and J. T. Guo. 2007). Briefly, after withdrawal of tetracycline, HepDES19 cells were left untreated, or were treated with compound at serial concentrations; tetracycline-free media was changed every other day with fresh compound supplementation. The concentration of DMSO in all experimental groups was normalized at 0.1%. […] Shorter exposure of the Hirt DNA blot was used for the quantitative determination of DP-rcDNA signals. […] The reduction between DP-rcDNA and cccDNA was proportional compared with untreated control. […] Liu, C. P. Hu, and C. Chang. 2005. Guo, H., T. Zhou, D. Jiang, A. Cuconati, G. H. Xiao, T. M. Block, and J. T. Guo. 2007. Zhou, T., H. Guo, J. T. Guo, A. Cuconati, A. Mehta, and T. M. Block. 2006).

[3] = cytotoxicity assay (MTT, CC50); type: cell-based; details: human, HepDE19 cells
Experimental: as §1

| Compound | CC50 [1] | reduction of viral RNA and DNA replicative intermediates [2] | steady state levels of HBV RNA and core DNA [2] | CC50 [3] |
| --- | --- | --- | --- | --- |
| O=C(CN(c1cc(C(F)(F)F)ccc1Cl)S(=O)(=O)c1ccccc1)NCc1ccncc1 [CCC-0975, 2-[Benzenesulfonyl-(2-chloro-5-trifluoromethyl-phenyl)-amino]-N-pyridin-4-ylmethyl-acetamide] | > 50000 nM | slight reduction | did not reduce |  |
| Cc1nc2cc(NC(=O)c3ccc(S(=O)(=O)N(C)Cc4ccccc4)cc3)ccc2s1 [CCC-0346, 4-(Benzyl-methyl-sulfamoyl)-N-(2-methyl-benzothiazol-5-yl)-benzamide] |  | slight reduction | did not reduce | 3000 nM |
